In patent US20100249179A1, “Farnesoid X Receptor Agonists” (SMITHKLINE BEECHAM CORPORATION, priority 2007, published 2010):

Tested on: cultured HSCs
Experiment: not given
Details: cited from earlier work

| SMILES | expression of fibrotic markers such as α-smooth muscle actin and α1(I) collagen |
| --- | --- |
| CC[C@H]1[C@@H](O)[C@@H]2[C@H](CC[C@]3(C)[C@@H]([C@H](C)CCC(=O)O)CC[C@@H]23)[C@@]2(C)CC[C@@H](O)C[C@@H]12 [Example 6EtCDCA, 6-ethyl-chenodeoxycholic acid] | decreased |

Tested on: rodent models of hepatic fibrosis
Experiment: not given
Details: multiple rodent models; cited from earlier work

| SMILES | hepatic fibrosis |
| --- | --- |
| CC[C@H]1[C@@H](O)[C@@H]2[C@H](CC[C@]3(C)[C@@H]([C@H](C)CCC(=O)O)CC[C@@H]23)[C@@]2(C)CC[C@@H](O)C[C@@H]12 [Example 6EtCDCA, 6-ethyl-chenodeoxycholic acid] | prevent development and promote resolution |

Target: T1, Human FXRα Ligand Binding Domain (Homo sapiens, UniProt Q96RI1)
T1 construct: polyhistidine (pRSET-A vector leader) (N); made in house; host or cells: E. coli BL21 (DE3), pRSET-A vector
T1 sequence (Q96RI1 237-472 isoform Q96RI1-2): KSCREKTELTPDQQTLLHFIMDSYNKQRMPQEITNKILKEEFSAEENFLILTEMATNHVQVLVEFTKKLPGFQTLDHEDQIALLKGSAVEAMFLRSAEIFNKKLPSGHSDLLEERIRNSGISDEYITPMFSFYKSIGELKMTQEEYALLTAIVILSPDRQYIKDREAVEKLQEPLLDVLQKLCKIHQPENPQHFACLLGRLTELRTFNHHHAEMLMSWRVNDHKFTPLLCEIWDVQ
Experiment: FXR Cofactor Binding Assay (time resolved fluorescence, SRC-1 peptide recruitment)
Format: biochemical
Details: class symbols; read-out: Activity (pEC50) (converted)
Source text: Determination of a ligand mediated cofactor peptide interaction to quantify ligand binding to the nuclear receptor Farnesoid X Receptor (FXR). The method measures the ability of putative ligands to modulate the interaction between the purified bacterial expressed FXRα ligand binding domain (LBD) and a synthetic biotinylated peptide based on residues 676-700 of steroid receptor coactivator-1 (SRC-1) (LXXLL-containing domain-2 where L is the amino acid leucine and X indicates any other amino acid (LCD2), 676-700). The sequence of the SRC-1 peptide used is as published in Iannone, M. A., et al., 2001 Cytometry 44:326-337 where the N-terminus was biotinylated (B) and the C-terminus was amidated. Detection of the associated complex was measured by time resolved fluorescence (TRF). The purified LBD of FXR was labeled with biotin then mixed with stoichiometric amounts of allophycocyanin (APC) labeled streptavidin (Molecular Probes). The biotinylated peptide was then mixed with a ½ stoichiometric amount of europium labeled streptavidin (Wallac Inc). Each was then blocked with a 5 fold excess of biotin and allowed to equilibrate for 15 min. Equimolar amounts of receptor and peptide were mixed together and were allowed to equilibrate for at least 30 min prior to the addition to either a variable or constant concentrations of the sample for which the affinity is to be determined. After equilibration, the time-resolved fluorescent signal was quantitated using a fluorescent plate reader. The affinity of the test compound was estimated from a plot of fluorescence versus concentration of test compound added.
A basal level of FXR: peptide formation is observed in the absence of added ligand. Ligands that promote the complex formation induce a concentration-dependent increase in time-resolved fluorescent signal. Compounds which bind equally well to both monomeric FXR and to the FXR: peptide complex would be expected to give no change in signal, whereas ligands which bind preferentially to the monomeric receptor would be expected to induce a concentration-dependent decrease in the observed signal.
Advance Preparation: Human Farnesoid X Receptor α Ligand Binding Domain Human FXRα Ligand Binding Domain (FXRα LBD) was expressed in E. coli strain BL21 (DE3) as an amino-terminal polyhistidine tagged fusion protein. Expression was under the control of an isopropyl-β-D-thiogalactopyranoside (IPTG) inducible T7 promoter. DNA encoding this recombinant protein is subcloned into the pRSET-A expression vector (Invitrogen). The coding sequence of Human FXRα LBD was derived from Genbank accession number U 68233 (amino acids 237 to 472).
Ten-liter fermentation batches were grown in Rich PO4 media with 0.1 mg/mL Ampicillin at 25° C. for 12 hours, cooled to 9° C. and held at that temperature for 36 hours to a density of OD600=14. At this cell density, 0.25 mM IPTG is added and induction proceeded for 24 hours at 9° C., to a final OD600=16. Cells are harvested by centrifugation (20 minutes, 3500× gravity, 4° C.), and concentrated cell slurries were stored in phosphate buffered saline (PBS) at […].
Routinely, 30-40 g cell paste (equivalent to 2-3 liters of the fermentation batch) was resuspended in 200-250 mL Tris buffered saline (TBS), pH 7.2 (25 mM Tris-hydroxymethylamino methane (Tris), 150 mM sodium chloride). Cells were lysed by passing 3 times through a French Press and cell debris was removed by centrifugation (30 minutes, 20,000× gravity, 4° C.). The cleared supernatant was filtered through course pre-filters, and TBS, pH 7.2, 500 mM imidazole was added to obtain a final imidazole concentration of 50 mM. This lysate was loaded onto a column (6×8 cm) packed with Sepharose [Ni^++ charged] Chelation resin (Pharmacia) and pre-equilibrated with TBS pH 7.2/50 mM imidazole. After washing to baseline absorbance with equilibration buffer, the column was washed with one column volume of TBS pH 7.2 containing 90 mM imidazole. […]

| SMILES | EC50 [nM] |
| --- | --- |
| CC(C)c1onc(-c2c(Cl)cccc2Cl)c1COc1ccc(-c2ccc3oc(C(=O)O)cc(=O)c3c2)cc1 [Example 14, 6-[4-({[3-(2,6-Dichlorophenyl)-5-(1-methylethyl)-4-isoxazolyl]methyl}oxy)phenyl]-4-oxo-4H-chromene-2-carboxylic Acid] | < 100 |
| CC(C)c1onc(-c2c(Cl)cccc2Cl)c1COc1ccc(-c2csc3ccc(C(=O)O)cc23)cc1 [Example 9, 3-[4-({[3-(2,6-Dichlorophenyl)-5-(1-methylethyl)-4-isoxazolyl]methyl}oxy)phenyl]-1-benzothiophene-5-carboxylic Acid] | 1020 to 10000 |
| CC(C)c1onc(-c2c(Cl)cccc2Cl)c1COc1ccc(-c2ccc3c(C(=O)O)cc(=O)oc3c2)cc1 [Example 15, 7-[4-({[3-(2,6-Dichlorophenyl)-5-(1-methylethyl)-4-isoxazolyl]methyl}oxy)phenyl]-2-oxo-2H-chromene-4-carboxylic Acid] | 102 to 1000 |
| CC(C)c1onc(-c2c(Cl)cccc2Cl)c1COc1ccc(-c2ccc3c(c2)CC(C(=O)O)C3)cc1 (centres unmarked) [Example 6, 5-[4-({[3-(2,6-Dichlorophenyl)-5-(1-methylethyl)-4-isoxazolyl]methyl}oxy)phenyl]-2,3-dihydro-1H-indene-2-carboxylic Acid] | 102 to 1000 |
| CC(C)c1onc(-c2c(Cl)cccc2Cl)c1COc1ccc(-c2ccc3c(c2)CCCC3C(=O)O)cc1 (centres unmarked) [Example 17, 6-[4-({[3-(2,6-Dichlorophenyl)-5-(1-methylethyl)-4-isoxazolyl]methyl}oxy)phenyl]-1,2,3,4-tetrahydro-1-naphthalenecarboxylic Acid] | 102 to 1000 |
| CC(C)c1onc(-c2c(Cl)cccc2Cl)c1COc1ccc(-c2ccc3c(C(=O)O)c[nH]c3c2)cn1 [Example 13, 6-[6-({[3-(2,6-Dichlorophenyl)-5-(1-methylethyl)-4-isoxazolyl]methyl}oxy)-3-pyridinyl]-1H-indole-3-carboxylic Acid] | 102 to 1000 |
| CC(C)c1onc(-c2c(Cl)cccc2Cl)c1COc1ccc(-c2ccc3c(c2)CCC3(O)C(=O)O)cc1 (centres unmarked) [Example 7, 5-[4-({[3-(2,6-Dichlorophenyl)-5-(1-methylethyl)-4-isoxazolyl]methyl}oxy)phenyl]-1-hydroxy-2,3-dihydro-1H-indene-1-carboxylic Acid] | 102 to 1000 |
| CC(C)c1onc(-c2c(Cl)cccc2Cl)c1COc1ccc(Nc2cccc3ccc(C(=O)O)cc23)cc1 [Example 18, 8-{[4-({[3-(2,6-Dichlorophenyl)-5-(1-methylethyl)-4-isoxazolyl]methyl}oxy)phenyl]amino}-2-naphthalenecarboxylic Acid] | 102 to 1000 |
| CC(C)c1onc(-c2c(Cl)cccc2Cl)c1COc1ccc(-c2ccc3sc(C(=O)O)cc3n2)cc1 [Example 10, 5-[4-({[3-(2,6-Dichlorophenyl)-5-(1-methylethyl)-4-isoxazolyl]methyl}oxy)phenyl]thieno[3,2-b]pyridine-2-carboxylic Acid] | 102 to 1000 |
| CC(C)c1onc(-c2c(Cl)cccc2Cl)c1COc1ccc(-c2ccc3c(c2)C(C(=O)O)CC3)cc1 (centres unmarked) [Example 2, 6-[4-({[3-(2,6-Dichlorophenyl)-5-(1-methylethyl)-4-isoxazolyl]methyl}oxy)phenyl]-2,3-dihydro-1H-indene-1-carboxylic Acid] | 102 to 1000 |
| CC(C)c1onc(-c2c(Cl)cccc2Cl)c1COc1ccc(Sc2cccc3sc(C(=O)O)cc23)cc1 [Example 19, 4-{[4-({[3-(2,6-Dichlorophenyl)-5-(1-methylethyl)-4-isoxazolyl]methyl}oxy)phenyl]thio}-1-benzothiophene-2-carboxylic Acid] | 102 to 1000 |
| CC(C)c1onc(-c2c(Cl)cccc2Cl)c1COc1ccc(-c2ccc3c(=O)cc(C(=O)O)oc3c2)cc1 [Example 16, 7-[4-({[3-(2,6-Dichlorophenyl)-5-(1-methylethyl)-4-isoxazolyl]methyl}oxy)phenyl]-4-oxo-4H-chromene-2-carboxylic Acid] | 102 to 1000 |
| CC(C)c1onc(-c2c(Cl)cccc2Cl)c1COc1ccc(-c2nc3cccc(C(=O)O)c3[nH]2)cc1 [Example 21, 2-[4-({[3-(2,6-Dichlorophenyl)-5-(1-methylethyl)-4-isoxazolyl]methyl}oxy)phenyl]-1H-benzimidazole-4-carboxylic Acid] | 1020 to 10000 |

Second part, the compound after the results:

| EC50 [nM] | SMILES |
| --- | --- |
| < 100 | CC(C)c1onc(-c2c(Cl)cccc2Cl)c1COc1ccc(-c2ccc3[nH]c(C(=O)O)cc3c2)cc1 [Example 1, 5-[4-({[3-(2,6-Dichlorophenyl)-5-(1-methylethyl)-4-isoxazolyl]methyl}oxy)phenyl]-1H-indole-2-carboxylic Acid] |
| < 100 | CC(C)c1onc(-c2c(Cl)cccc2Cl)c1COc1ccc(-c2ccc3oc(C(=O)O)cc3c2)cc1 [Example 4, 5-[4-({[3-(2,6-Dichlorophenyl)-5-(1-methylethyl)-4-isoxazolyl]methyl}oxy)phenyl]-1-benzofuran-2-carboxylic Acid] |
| 102 to 1000 | CC(C)c1onc(-c2c(Cl)cccc2Cl)c1COc1ccc(-c2ccc3cc(C(=O)O)[nH]c3c2)cc1 [Example 5, 6-[4-({[3-(2,6-Dichlorophenyl)-5-(1-methylethyl)-4-isoxazolyl]methyl}oxy)phenyl]-1H-indole-2-carboxylic Acid] |
| 1020 to 10000 | CC(C)c1onc(-c2c(Cl)cccc2Cl)c1COc1ccc(-c2ccc3c(C(=O)O)n[nH]c3c2)cc1 [Example 8, 6-[4-({[3-(2,6-Dichlorophenyl)-5-(1-methylethyl)-4-isoxazolyl]methyl}oxy)phenyl]-1H-indazole-3-carboxylic Acid] |
| < 100 | CC(C)c1onc(-c2c(Cl)cccc2Cl)c1COc1ccc(-c2ccc3c(C(=O)O)csc3c2)cc1 [Example 11, 6-[4-({[3-(2,6-Dichlorophenyl)-5-(1-methylethyl)-4-isoxazolyl]methyl}oxy)phenyl]-1-benzothiophene-3-carboxylic Acid] |
| < 100 | CC(C)c1onc(-c2c(Cl)cccc2Cl)c1COc1ccc(-c2ccc3c(C(=O)O)c[nH]c3c2)cc1 [Example 3, 6-[4-({[3-(2,6-Dichlorophenyl)-5-(1-methylethyl)-4-isoxazolyl]methyl}oxy)phenyl]-1H-indole-3-carboxylic Acid] |
| 102 to 1000 | CC(C)c1onc(-c2c(Cl)cccc2Cl)c1COc1ccc(-c2ccc3sc(C(=O)O)cc3c2)cc1 [Example 12, 5-[4-({[3-(2,6-Dichlorophenyl)-5-(1-methylethyl)-4-isoxazolyl]methyl}oxy)phenyl]-1-benzothiophene-2-carboxylic Acid] |

Same assay, conditions: given as numeric bound; read-out: Activity (pEC50) (converted)

| EC50 [nM] | SMILES |
| --- | --- |
| > 20000 | CCOC(=O)c1noc2cc(-c3ccc(OCc4c(-c5c(Cl)cccc5Cl)noc4C(C)C)cc3)ccc12 [Example 20, Ethyl 6-[4-({[3-(2,6-dichlorophenyl)-5-(1-methylethyl)-4-isoxazolyl]methyl}oxy)phenyl]-1,2-benzisoxazole-3-carboxylate] |
